Consider 1 molecule from ChEMBL document CHEMBL5316326, “Discovery of a Novel Covalent EZH2 Inhibitor Based on Tazemetostat Scaffold for the Treatment of Ovarian Cancer” (J Med Chem, 2023).

The target of data set [1] is N-lysine methyltransferase KMT5A (Homo sapiens) (UniProt Q9NQR1). Briefly: Inhibition of SETD8 (unknown origin) at 1 to 10 uM by AlphaLlSA assay. The settings on record: dose 1-10 µM.
In data set [2] the test system is Histone-lysine N-methyltransferase EZH2 (Homo sapiens), Q15910 [Y641N]. The settings on record: dose 10.0 nM.
Description: Inhibition of EZH2 Y614N mutant (unknown origin) at 10 nM by AlphaLlSA assay
Data set [3] relates to PA-1. The experiment in a line: Induction of apoptosis in human PA-1 cells assessed as early apoptotic cells at 40 uM incubated for 48 hrs by AnnexinV-FITC/PI staining based flow cytometry analysis (Rvb= 6.89%). Type of data set: functional.
Data set [4] relates to PA-1. The experiment in a line: Antitumor activity against human PA-1 cells xenografted in BALB/C nude mouse assessed as tumor growth inhibition at 150 mg/kg,po BID for 21 days. Type of data set: functional. The settings on record: PA-1, 504 h, time 21 day, read-out: TGI. Background: In xenograft studies the graft and the host belong to different species.
Data set [5] in a line: AUCt in Sprague-Dawley rat at 5 mg/kg, iv and measured upto 24 hrs by LC-MS/MS analysis. It is filed as ADME, organism-based. On the set-up: time < 24 hrs, dose 5 mg/kg, route iv. The settings on record: in vivo.
Data set [6] has as its system PA-1. Briefly: Induction of apoptosis in human PA-1 cells assessed as late apoptotic cells at 40 uM incubated for 48 hrs by AnnexinV-FITC/PI staining based flow cytometry analysis (Rvb= 3.09%). It is filed as functional. Background: A flow cytometer gives signals particle by particle.
The subject of data set [7] is PA-1. Briefly: Induction of apoptosis in human PA-1 cells assessed as early apoptotic cells at 5 uM incubated for 48 hrs by AnnexinV-FITC/PI staining based flow cytometry analysis (Rvb= 6.89%). Type of data set: functional.
The test system of data set [8] is PA-1. The experiment in a line: Induction of apoptosis in human PA-1 cells assessed as necrotic cells at 20 uM incubated for 48 hrs by AnnexinV-FITC/PI staining based flow cytometry analysis (Rvb= 1.48%). Type of data set: functional.
The nature of data set [9]: AUCt in Sprague-Dawley rat at 100 mg/kg, po and measured upto 24 hrs by LC-MS/MS analysis. It is filed as ADME, organism-based. Further details: time < 24 hrs, dose 100 mg/kg, route po. The settings on record: in vivo.
A further data set concerns A549. Briefly: Antiproliferative activity against human A549 cells assessed as inhibition of cell proliferation incubated for 72 hrs by MTT assay. Type of data set: functional, cell-based. The settings on record: A549, 72 h. For orientation: Tetrazolium dyes change colour on reduction, which living cells bring about.
Data set [10] can be described thus: Cmax in Sprague-Dawley rat at 100 mg/kg, po and measured upto 24 hrs by LC-MS/MS analysis. Type of data set: ADME, organism-based. Further details: dose 100 mg/kg, time < 24 hrs, route po. The settings on record: in vivo.
For data set [11], the system named is PA-1. Briefly: Antitumor activity against human PA-1 cells xenografted in BALB/C nude mouse assessed as reduction tumor cell proliferation at 75 to 150 mg/kg,po BID for 21 days by Ki67 staining based immunohistochemical analysis. Type of data set: functional, organism-based. The settings on record: dose 75-150 mg/kg, time 21.0 day.
Data set [12] is described as follows: Toxicity in BALB/C nude mouse xenografted with human PA-1 cells assessed as pathological changes in serum biochemical values at 75 to 150 mg/kg,po BID for 21 days. It is filed as organism-based. The settings on record: in vivo, 504 h, dose 75-150 mg/kg, time 21 day.
The target in data set [13] is Histone-lysine N-methyltransferase EZH2 (Homo sapiens, UniProt Q15910). The experiment in a line: Inhibition of EZH2 methyltransferase activity in human PA-1 cells assessed as reduction in H3K27me3 level at 10 uM and measured upto 4 days by Western blot analysis. Type of data set: cell-based. The settings on record: time <= 4.0 day, TDE = time-dependent effect.
For another data set, the system named is NCI-H1703. The experiment in a line: Antiproliferative activity against human NCI-H1703 cells assessed as inhibition of cell proliferation incubated for 72 hrs by MTT assay. Type of data set: functional, cell-based. The settings on record: NCI-H1703, 72 h.

Activity calls are given as the source filed them. No cut-off for these calls is given here.

Histone-lysine N-methyltransferase EZH2 (Homo sapiens), Q15910 [Y641N], sequence (Q15910 whole entry Y641N): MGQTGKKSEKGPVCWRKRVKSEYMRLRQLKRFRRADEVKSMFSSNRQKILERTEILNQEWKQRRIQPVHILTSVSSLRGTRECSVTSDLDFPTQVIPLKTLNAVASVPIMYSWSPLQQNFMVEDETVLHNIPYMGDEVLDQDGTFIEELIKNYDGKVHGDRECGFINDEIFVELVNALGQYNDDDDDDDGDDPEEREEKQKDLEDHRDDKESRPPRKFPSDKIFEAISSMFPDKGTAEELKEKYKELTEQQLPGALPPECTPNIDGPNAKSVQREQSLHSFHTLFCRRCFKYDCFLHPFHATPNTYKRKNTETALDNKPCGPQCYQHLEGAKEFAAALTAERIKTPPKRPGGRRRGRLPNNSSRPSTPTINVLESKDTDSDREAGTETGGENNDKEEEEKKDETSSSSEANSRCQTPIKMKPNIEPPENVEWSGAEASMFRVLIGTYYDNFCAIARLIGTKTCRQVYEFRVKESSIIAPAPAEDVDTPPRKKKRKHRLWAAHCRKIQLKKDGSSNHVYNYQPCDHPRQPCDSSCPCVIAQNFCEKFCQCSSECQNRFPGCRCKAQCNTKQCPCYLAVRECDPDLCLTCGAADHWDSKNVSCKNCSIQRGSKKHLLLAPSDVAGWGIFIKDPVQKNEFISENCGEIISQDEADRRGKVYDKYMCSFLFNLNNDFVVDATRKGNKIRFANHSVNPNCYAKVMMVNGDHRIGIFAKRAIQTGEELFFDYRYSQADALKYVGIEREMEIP
N-lysine methyltransferase KMT5A (Homo sapiens), sequence (Q9NQR1 whole entry): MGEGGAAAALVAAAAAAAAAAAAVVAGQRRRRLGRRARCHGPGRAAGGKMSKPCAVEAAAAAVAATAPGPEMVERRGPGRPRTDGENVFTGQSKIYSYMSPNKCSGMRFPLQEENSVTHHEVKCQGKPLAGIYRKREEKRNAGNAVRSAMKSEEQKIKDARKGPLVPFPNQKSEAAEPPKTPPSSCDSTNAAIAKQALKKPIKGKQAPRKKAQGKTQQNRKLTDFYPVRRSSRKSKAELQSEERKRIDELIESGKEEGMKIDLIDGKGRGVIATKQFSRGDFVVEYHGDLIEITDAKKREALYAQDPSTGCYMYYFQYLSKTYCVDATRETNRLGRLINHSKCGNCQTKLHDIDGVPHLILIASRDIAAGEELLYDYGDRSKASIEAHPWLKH
Histone-lysine N-methyltransferase EZH2, sequence (Q15910 whole entry, looked up): as the sequence (Q15910 whole entry Y641N) above, with N641Y counted along it

Turning to `C=CC(=O)Nc1ccc(C)c(-c2cc(C(=O)NCc3c(C)cc(C)[nH]c3=O)c(C)c(N(CC)C3CCOCC3)c2)c1`, in data set [1], the inhibition entry was “inactive”. Moreover, the inhibition entry in [2] is “Active”. Moreover, the Activity is listed as 87.19% in the data set on PA-1 [3]; 2.21% with PA-1 [6]; 10.39% in the data set on PA-1 [7]; 3.36% with PA-1 [8]; “Non-Toxic” in data set [12]. Further, the inhibition in vivo at 150 mg/kg in the data set on PA-1 [4] amounted to 78.2%. In [5], this molecule showed an AUCt of 7225.47 ng·h/mL. The AUC(0-t) (commonly the area under the concentration-time curve up to a stated or last time point) at 24 h in [9] came to 12600 ng·h/mL. Besides, the concentration for half-maximal inhibition (IC50) – broadly, the concentration at which inhibition is half-maximal – was determined as 28.7 µM in the data set with A549 and 26.3 µM with NCI-H1703. Further, in data set [10], the Cmax (commonly the highest concentration seen after dosing) was 6740 ng/mL. Moreover, the outcome in the data set with PA-1 [11] was Active. For the same molecule, in data set [13], the inhibition result is “Tde”.
